Active and inactive are the calls of the source. The calls are words filed in the database; no cut-off is given here. Bridge positions count the residues as written; N and C are the ends. Square brackets hold non-standard residues; d marks the D form. Peptide text beside a SMILES is read from it. Dab = NCC[C@H](N)C(=O)O

One may read the MIC as the least concentration at which growth counts as inhibited.

What all share (format): functional, organism-based
In experiment [1] the test system is Pseudoalteromonas. Put plainly: Induction of cell lysis in Pseudoalteromonas ER72M2 assessed as depolarization of cytoplasmic membrane at 3 ug/ml in presence of gramicidin D.
The test system of experiment [2] is Pseudoalteromonas. Put plainly: Induction of cell lysis in Pseudoalteromonas ER72M2 assessed as binding of phenyldicarbaundecaborane at 3 ug/ml in presence of gramicidin D.
The subject of experiment [3] is Pseudoalteromonas. Put plainly: Induction of cell lysis in Pseudoalteromonas ER72M2 assessed as leakage of intracellular K+ at 3 ug/ml in presence of gramicidin D.
For experiment [4], the system named is Pseudoalteromonas. Put plainly: Induction of cell lysis in Pseudoalteromonas ER72M2 assessed as increase in accumulation of phenyldicarbaundecaborane at 2 ug/ml.
Experiment [5] has as its system Pseudoalteromonas. The experiment can be described thus: Induction of cell lysis in Pseudoalteromonas ER72M2 assessed as increase in accumulation of tetraphenylphonium at 2 ug/ml.
Experiment [6] deals with Pseudoalteromonas. The experiment can be described thus: Induction of cell lysis in Pseudoalteromonas ER72M2 assessed as permeability across outer membrane at 2 ug/ml.
The test system of experiment [7] is Pseudoalteromonas. The experiment can be described thus: Induction of cell lysis in Pseudoalteromonas ER72M2 assessed as decipation of K+ gradient on cytoplasmic membrane treated at 50 ug/ml after 30 mins addition of Mg2+ and Ca2+.
For experiment [8], the system named is Pseudoalteromonas. Put plainly: Induction of cell lysis in Pseudoalteromonas ER72M2 assessed as intense membrane alkalization treated at 50 ug/ml after 30 mins addition of Mg2+ and Ca2+.
Experiment [9] relates to Pseudoalteromonas. Put plainly: Induction of cell lysis in Pseudoalteromonas ER72M2 assessed as depolarization of cytoplasmic membrane treated at 50 ug/ml after 30 mins addition of Mg2+ and Ca2+.
In experiment [10] the test system is Pseudoalteromonas. The experiment can be described thus: Induction of cell lysis in Pseudoalteromonas ER72M2 assessed as accumulation of tetraphenylphonium treated at 50 ug/ml after 30 mins addition of Mg2+ and Ca2+.
Experiment [11] concerns Pseudoalteromonas. Put plainly: Induction of cell lysis in Pseudoalteromonas ER72M2 assessed as extracellular K+ concentration treated at 50 ug/ml after 30 mins addition of Mg2+ and Ca2+.
For experiment [12], the system named is Pseudoalteromonas. The experiment can be described thus: Induction of cell lysis in Pseudoalteromonas ER72M2 assessed as accumulation of phenyldicarbaundecaborane treated at 50 ug/ml after 30 mins addition of Mg2+ and Ca2+.
Experiment [13] deals with Pseudoalteromonas. The experiment can be described thus: Induction of cell lysis in Pseudoalteromonas ER72M2 assessed as increase in alkalization of membrane treated at 50 ug/ml after 30 mins incubation.
For experiment [14], the system named is Pseudoalteromonas. The experiment can be described thus: Induction of cell lysis in Pseudoalteromonas ER72M2 assessed as dipolarization of cytoplasmic membrane treated at 50 ug/ml after 30 mins incubation.
Experiment [15] relates to Pseudoalteromonas. Put plainly: Induction of cell lysis in Pseudoalteromonas ER72M2 assessed as increase in extracellular concentration of tetraphenylphonium treated at 50 ug/ml after 30 mins incubation.
In experiment [16] the test system is Pseudoalteromonas. The experiment can be described thus: Induction of cell lysis in Pseudoalteromonas ER72M2 assessed as accumulation of phenyldicarbaundecaborane treated at 50 ug/ml after 30 mins incubation.
For experiment [17], the system named is Pseudoalteromonas. The experiment can be described thus: Induction of cell lysis in Pseudoalteromonas ER72M2 assessed as leakage of intracellular K+ treated at 50 ug/ml after 30 mins incubation.
The test system of experiment [18] is Pseudoalteromonas. The experiment can be described thus: Antimicrobial activity against Pseudoalteromonas ER72M2 after 50 hrs in presence of Ca2+ cation by epsilometer agar diffusion method. (In general: A growth-free zone around the sample is the usual read-out of agar diffusion tests.)
Experiment [19] concerns Pseudoalteromonas. Put plainly: Antimicrobial activity against Pseudoalteromonas ER72M2 after 50 hrs in presence of Mg2+ cation by epsilometer agar diffusion method.
Experiment [20] relates to Pseudoalteromonas. The experiment can be described thus: Antimicrobial activity against Pseudoalteromonas ER72M2 after 50 hrs by epsilometer agar diffusion method.
In experiment [21] the test system is Pseudoalteromonas. Put plainly: Antimicrobial activity against Pseudoalteromonas ER72M2 assessed as after 50 hrs in presence of Mg2+ and Ca2+ by epsilometer agar diffusion method.
The subject of experiment [22] is Pseudoalteromonas. The experiment can be described thus: Induction of cell lysis in Pseudoalteromonas ER72M2 assessed as shrinkage of intracellular volume after 25 mins in presence of divalent cation by light microscopy.
The test system of experiment [23] is Pseudoalteromonas. The experiment can be described thus: Induction of cell lysis in Pseudoalteromonas ER72M2 assessed as decrease in culture turbidity treated at 50 ug/ml after 30 mins addition of Ca2+, Mg2+.
Experiment [24] has as its system Escherichia coli. The experiment can be described thus: Induction of cell lysis in Escherichia coli HMS174 assessed as decrease in culture turbidity at 50 ug/ml.
The subject of experiment [25] is Pseudoalteromonas. The experiment can be described thus: Induction of cell lysis in Pseudoalteromonas A28 assessed as decrease in culture turbidity at 50 ug/ml.
Experiment [26] relates to Pseudoalteromonas espejiana. The experiment can be described thus: Induction of cell lysis in Pseudoalteromonas espejiana BAL31 assessed as decrease in culture turbidity at 50 ug/ml.
The test system of experiment [27] is Pseudoalteromonas. The experiment can be described thus: Induction of cell lysis in Pseudoalteromonas ER72M2 assessed as decrease in culture turbidity.
In experiment [28] the test system is Pseudoalteromonas. Put plainly: Induction of cell lysis in Pseudoalteromonas ER72M2 assessed as outer membrane permeability at 50 ug/ml.
Experiment [29] has as its system Pseudoalteromonas. The experiment can be described thus: Induction of cell lysis in Pseudoalteromonas ER72M2 assessed as decrease in culture turbidity at 2 ug/ml in presence of gramicidin D.
Experiment [30] concerns Pseudoalteromonas. The experiment can be described thus: Induction of cell lysis in Pseudoalteromonas ER72M2 at 10 ug/ml in presence of arsenate.
Experiment [31] concerns Pseudoalteromonas. Put plainly: Induction of cell lysis in Pseudoalteromonas ER72M2 at 10 ug/ml.
Experiment [32] relates to Pseudoalteromonas. Put plainly: Induction of cell lysis in Pseudoalteromonas ER72M2 assessed as voltage dissipation in presence of KCN.
Experiment [33] has as its system Pseudoalteromonas. Put plainly: Induction of cell lysis in Pseudoalteromonas ER72M2 assessed as decrease in culture turbidity at 2 ug/ml in presence of nigericin.
Experiment [34] relates to Pseudoalteromonas. The experiment can be described thus: Induction of cell lysis in Pseudoalteromonas ER72M2 assessed as decrease in culture turbidity treated at 50 ug/ml after 30 mins addition of Ca2+.
In experiment [35] the test system is Pseudoalteromonas. The experiment can be described thus: Induction of cell lysis in Pseudoalteromonas ER72M2 assessed as decrease in culture turbidity treated at 50 ug/ml after 30 mins addition of Mg2+.
Experiment [36] deals with Pseudoalteromonas. The experiment can be described thus: Induction of cell lysis in Pseudoalteromonas ER72M2 assessed as complete lysis treated at 50 ug/ml after 30 mins addition of Ca2+, Mg2+.
For experiment [37], the system named is Pseudoalteromonas. Put plainly: Induction of cell lysis in gramicidin D-deplolarized Pseudoalteromonas ER72M2 assessed as decrease in culture turbidity at 2 ug/ml.
Experiment [38] relates to Pseudoalteromonas. The experiment can be described thus: Antimicrobial activity against Pseudoalteromonas ER72M2 up to 50 ug/ml.
For experiment [39], the system named is Pseudoalteromonas. Put plainly: Induction of cell lysis in Pseudoalteromonas ER72M2 assessed as cytoplasmic membrane integrity at 50 ug/ml.

Consider POLYMYXIN B, for which the result in experiment [1], in [2], in experiment [3], in [4], in [5] and in experiment [7] was Active. The outcome in experiment [8], in [9], in experiment [10], in [11], in experiment [12] and in experiment [13] was Active. Besides, the outcome in experiment [14], in [15], in experiment [16], in [17], in experiment [22] and in experiment [24] was Active. Moreover, the result in [25], in experiment [26], in experiment [28], in experiment [30], in [31] and in experiment [32] was Active. Besides, the outcome in experiment [33], in experiment [34] and in [35] was Active. For the same molecule, the outcome in experiment [6], in experiment [23], in experiment [29], in [36] and in [37] was inactive. Besides, the MIC in experiment [18] stood at 0.11 µg/mL; in experiment [19], 0.33 µg/mL; in experiment [20], 0.33 µg/mL; in [21] it was 0.42 µg/mL. The Activity entry in experiment [27] is “Dose-dependent effect”.
Turning to `CC(C)C[C@@H]1NC(=O)[C@@H](Cc2ccccc2)NC(=O)[C@H](CCN)NC(=O)[C@@H](NC(=O)[C@H](CCN)NC(=O)[C@@H](N)[C@@H](C)O)CCNC(=O)[C@H]([C@@H](C)O)NC(=O)[C@H](CCN)NC(=O)[C@H](CCN)NC1=O` (H-T[Dab][Dab][Dab][dF]L[Dab][Dab]T; lactam 3-C), the result in [38] and in experiment [39] was inactive. The outcome in [28] was Active.

For the origin of these results see ChEMBL document CHEMBL1137644, “Polymyxin B induces lysis of marine pseudoalteromonads” (Antimicrob Agents Chemother, 2007).
